Reference: patent US9458120B2, “Phenoxypropanol derivative and pharmaceutical composition including the same” (KOREA INSTITUTE OF SCIENCE AND TECHNOLOGY, priority 2011, dated 2016)

How the values were obtained:
[1] = molecular target: α1G T-type calcium channel (Homo sapiens, UniProt O43497); assay: Assay for T-type calcium channel inhibition activity (FDSS6000 calcium imaging, KCl activation); type: cell-based; conditions: 75 s pre-treatment then KCl 75 mM, HEK293 cells expressing α1G T-type calcium channel and Kir2.1
TREK-1 channel = molecular target: T1, TREK-1 channel (Rattus norvegicus, UniProt Q920B6); assay: Assay for TREK channel inhibition activity (whole cell patch clamp recording, COS7 cell transfected with GFP-rTREK-1); type: cell-based; conditions: COS7 cells, GFP-rTREK-1, whole-cell patch clamp; for inhibition at 101 µM: COS-7, Table 3 (value ± spread), 101 μM [sic], read-out: block % at 101 μM; for inhibition at 10 µM: COS-7, Table 2, read-out: block % at 10 μM
T1 construct: expressed in transfected cells; host or cells: COS7 (Korean Cell Line Bank), transient transfection with Effectene
T1 sequence (Q920B6 1-426): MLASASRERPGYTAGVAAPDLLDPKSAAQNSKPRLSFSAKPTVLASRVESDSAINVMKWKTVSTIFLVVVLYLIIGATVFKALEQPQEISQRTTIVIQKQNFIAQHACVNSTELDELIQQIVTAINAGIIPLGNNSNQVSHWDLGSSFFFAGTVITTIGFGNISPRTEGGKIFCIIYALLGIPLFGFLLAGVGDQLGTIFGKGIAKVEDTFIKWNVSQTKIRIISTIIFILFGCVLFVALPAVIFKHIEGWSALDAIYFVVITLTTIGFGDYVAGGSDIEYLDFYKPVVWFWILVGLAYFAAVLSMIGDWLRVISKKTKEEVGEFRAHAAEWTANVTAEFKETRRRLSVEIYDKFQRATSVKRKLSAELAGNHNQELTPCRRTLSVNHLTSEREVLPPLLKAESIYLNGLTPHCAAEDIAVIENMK
Method in brief: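 Whole-cell patch clamp was run on COS7 cells 24 h after transfection with GFP-rTREK-1, held at −70 mV, using a 1 s ramp from −100 to +100 mV. Current was taken as the difference between +100 and −100 mV values. Block % = 100 − (current after/before blocker) × 100.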

Sequence of α1G T-type calcium channel (O43497 whole entry): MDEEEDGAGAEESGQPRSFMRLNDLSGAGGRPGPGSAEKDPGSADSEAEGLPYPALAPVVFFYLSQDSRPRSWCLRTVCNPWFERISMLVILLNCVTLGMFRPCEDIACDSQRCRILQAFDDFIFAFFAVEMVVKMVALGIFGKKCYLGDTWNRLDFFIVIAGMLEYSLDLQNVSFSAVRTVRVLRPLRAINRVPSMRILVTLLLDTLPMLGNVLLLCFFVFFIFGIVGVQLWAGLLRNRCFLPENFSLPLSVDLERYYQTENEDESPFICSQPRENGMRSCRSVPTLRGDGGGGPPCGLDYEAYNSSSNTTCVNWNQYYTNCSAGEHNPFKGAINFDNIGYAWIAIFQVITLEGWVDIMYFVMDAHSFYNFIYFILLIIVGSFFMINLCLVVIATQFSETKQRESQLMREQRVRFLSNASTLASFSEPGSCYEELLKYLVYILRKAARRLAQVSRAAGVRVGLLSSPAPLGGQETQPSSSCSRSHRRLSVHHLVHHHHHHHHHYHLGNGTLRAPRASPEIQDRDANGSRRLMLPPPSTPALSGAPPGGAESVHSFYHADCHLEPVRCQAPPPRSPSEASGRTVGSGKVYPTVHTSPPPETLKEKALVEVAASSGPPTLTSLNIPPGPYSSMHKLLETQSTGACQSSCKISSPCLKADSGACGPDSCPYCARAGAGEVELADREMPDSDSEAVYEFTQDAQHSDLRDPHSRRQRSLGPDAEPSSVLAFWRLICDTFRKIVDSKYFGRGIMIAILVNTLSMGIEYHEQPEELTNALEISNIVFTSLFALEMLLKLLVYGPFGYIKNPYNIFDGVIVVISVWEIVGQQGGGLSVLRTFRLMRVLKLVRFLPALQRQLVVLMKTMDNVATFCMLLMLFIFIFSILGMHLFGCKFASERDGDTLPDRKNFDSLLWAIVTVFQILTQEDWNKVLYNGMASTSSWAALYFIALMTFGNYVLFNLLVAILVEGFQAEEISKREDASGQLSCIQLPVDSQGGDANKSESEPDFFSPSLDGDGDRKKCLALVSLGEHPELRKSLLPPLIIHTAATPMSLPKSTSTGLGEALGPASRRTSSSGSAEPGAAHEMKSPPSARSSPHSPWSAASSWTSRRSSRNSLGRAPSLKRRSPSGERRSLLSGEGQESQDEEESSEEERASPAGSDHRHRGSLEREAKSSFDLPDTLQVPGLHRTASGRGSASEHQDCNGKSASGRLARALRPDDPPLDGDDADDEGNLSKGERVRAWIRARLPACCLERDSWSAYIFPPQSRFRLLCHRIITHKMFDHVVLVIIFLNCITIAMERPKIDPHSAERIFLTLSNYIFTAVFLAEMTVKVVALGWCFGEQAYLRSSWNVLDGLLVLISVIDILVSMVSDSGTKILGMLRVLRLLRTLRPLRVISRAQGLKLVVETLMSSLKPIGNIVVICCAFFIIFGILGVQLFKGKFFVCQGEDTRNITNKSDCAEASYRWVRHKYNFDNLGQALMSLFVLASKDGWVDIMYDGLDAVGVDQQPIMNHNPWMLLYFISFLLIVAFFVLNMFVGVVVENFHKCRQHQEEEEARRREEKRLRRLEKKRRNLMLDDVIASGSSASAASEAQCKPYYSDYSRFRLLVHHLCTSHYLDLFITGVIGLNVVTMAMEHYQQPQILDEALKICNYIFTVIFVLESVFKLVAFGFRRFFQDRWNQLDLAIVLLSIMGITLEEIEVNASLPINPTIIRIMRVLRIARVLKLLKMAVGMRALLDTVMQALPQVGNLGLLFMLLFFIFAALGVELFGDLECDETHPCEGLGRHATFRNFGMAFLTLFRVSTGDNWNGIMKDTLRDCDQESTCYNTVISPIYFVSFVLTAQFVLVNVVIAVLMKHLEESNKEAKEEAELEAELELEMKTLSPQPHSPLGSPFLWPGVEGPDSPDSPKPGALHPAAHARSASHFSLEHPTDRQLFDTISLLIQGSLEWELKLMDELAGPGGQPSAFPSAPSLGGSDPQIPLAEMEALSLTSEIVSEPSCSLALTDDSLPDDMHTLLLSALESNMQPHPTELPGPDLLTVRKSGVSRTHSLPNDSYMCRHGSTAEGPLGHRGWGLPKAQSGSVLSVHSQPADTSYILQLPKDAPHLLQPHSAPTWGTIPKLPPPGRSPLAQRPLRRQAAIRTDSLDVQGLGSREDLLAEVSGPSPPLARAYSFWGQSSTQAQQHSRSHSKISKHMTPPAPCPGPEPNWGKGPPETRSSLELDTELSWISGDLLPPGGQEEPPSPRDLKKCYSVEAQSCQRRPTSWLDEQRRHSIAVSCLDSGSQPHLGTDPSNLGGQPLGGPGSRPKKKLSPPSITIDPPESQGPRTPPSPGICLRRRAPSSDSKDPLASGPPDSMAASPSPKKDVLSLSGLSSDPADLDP

| SMILES | inhibition [1] | inhibition at 101 µM (TREK-1 channel) | inhibition at 10 µM (TREK-1 channel) | block % at 100 μM (TREK-1 channel; Table 2) | block % at 100 μM (TREK-1 channel; Table 3 (value ± spread)) |
| --- | --- | --- | --- | --- | --- |
| O[C@@H](COc1ccc(F)cc1)CN1CCN(Cc2nccn2Cc2ccccc2)CC1 [KKRE10155, (R)-1-(4-((1-benzyl-1H-imidazol-2-yl)methyl)piperazin-1-yl)-3-(4-fluorophenoxy)propan-2-ol] | 33.7% | 24 ± 10.6% | – | – | – |
| O[C@@H](COc1ccc(C(F)(F)F)cc1)CN1CCC(F)(F)CC1 [KKRE10185, (R)-1-(4,4-difluoropiperidin-1-yl)-3-(4-(trifluoromethyl)phenoxy)propan-2-ol] | 14.8% | 60.8 ± 7.47% | – | – | – |
| Cc1ccc(OC[C@@H](O)CN2CCN(CC(=O)NCc3ccc(C(F)(F)F)cc3)CC2)cc1 [KKRE10201, (S)-2-(4-(2-hydroxy-3-(p-tolyloxy)propyl)piperazin-1-yl)-N-(4-(trifluoromethyl)benzyl)acetamide] | 55.4% | 25.4 ± 7.87% | 25.4% | – | – |
| CC(C)Cc1cc(CNC(=O)CN2CCN(C[C@@H](O)COc3ccc(C(F)(F)F)cc3)CC2)nn1-c1ccc(F)cc1 [KKRE10217, (R)-N-((1-(4-fluorophenyl)-5-isobutyl-1H-pyrazol-3-yl)methyl)-2-(4-(2-hydroxy-3-(4-(trifluoromethyl)phenoxy)propyl)piperazin-1-yl)acetamide] | 75.7% | 50.1 ± 10.7% | – | – | – |
| O[C@H](COc1ccc(F)cc1)CN1CCC(N2CCOCC2)CC1 [KKRE10157, (S)-1-(4-fluorophenoxy)-3-(4-morpholinopiperidin-1-yl)propan-2-ol] | 9.33% | 29.6 ± 3.71% | – | – | – |
| CC(C)Cc1cc(CNC(=O)CN2CCN(C[C@@H](O)COc3ccc(F)cc3)CC2)nn1-c1ccccc1 [KKRE10213, (R)-2-(4-(3-(4-Fluorophenoxy)-2-hydroxypropyl)piperazin-1-yl)-N-((5-isobutyl-1-phenyl-1H-pyrazol-3-yl)methyl)acetamide] | 77.4% | – | 64.7% | – | – |
| O[C@@H](COc1ccc(C(F)(F)F)cc1)CN1CCC(N2CCCC2)CC1 [KKRE10184, (R)-1-(4-(pyrrolidin-1-yl)piperidin-1-yl)-3-(4-(trifluoromethyl)phenoxy)propan-2-ol] | 9.54% | 37.4 ± 6.98% | – | – | – |
| Cc1ccc(CNC(=O)CN2CCN(C[C@H](O)COc3ccc(C(F)(F)F)cc3)CC2)cc1 [KKRE10174, (S)-2-(4-(2-hydroxy-3-(4-(trifluoromethyl)phenoxy)propyl)piperazin-1-yl)-N-(4-methylbenzyl)acetamide] | 48.8% | 37.6 ± 5.55% | 37.6% | 88.17% | 88.17 ± 4.60% |
| CC(C)Cc1cc(CNC(=O)CN2CCN(C[C@@H](O)COc3ccc(F)cc3)CC2)nn1-c1ccc(F)cc1 [KKRE10226, (R)-2-(4-(3-(4-Fluorophenoxy)-2-hydroxypropyl)piperazin-1-yl)-N-((1-(4-fluorophenyl)-5-isobutyl-1H-pyrazol-3-yl)methyl)acetamide] | 78.8% | 18.8 ± 7.78% | – | – | – |
| CC(C)Cc1cc(CNC(=O)CN2CCN(C[C@H](O)COc3ccc(C(F)(F)F)cc3)CC2)nn1-c1ccccc1 [KKRE10215, (S)-2-(4-(2-Hydroxy-3-(4-(trifluoromethyl)phenoxy)propyl)piperazin-1-yl)-N-((5-isobutyl-1-phenyl-1H-pyrazol-3-yl)methyl)acetamide] | 80.9% | 82.1 ± 3.81% | – | – | – |
| O[C@@H](COc1ccc(F)cc1)CN1CCC(N2CCCC2)CC1 [KKRE10160, (R)-1-(4-fluorophenoxy)-3-(4-(pyrrolidin-1-yl)piperidin-1-yl)propan-2-ol] | 0.31% | 4.13 ± 4.43% | – | – | – |
| CC(C)Cc1cc(CNC(=O)CN2CCN(C[C@H](O)COc3ccc(C(F)(F)F)cc3)CC2)nn1-c1ccc(F)cc1 [KKRE10219, (S)-N-((1-(4-fluorophenyl)-5-isobutyl-1H-pyrazol-3-yl)methyl)-2-(4-(2-hydroxy-3-(4-(trifluoromethyl)phenoxy)propyl)piperazin-1-yl)acetamide] | 74.1% | 57 ± 6.08% | – | – | – |
